Values quoted from earlier work, collected in patent publication EP0594592B1, “A GROWTH FACTOR IN […] ARTIFICIAL TRANSPLANTS” (Strid, Lars, priority 1990, dated 1997).

Assays:
thromboxane = details: result in words
[1] = test system: macrophages, monocytes, mast cells and capillary endothelial cells; details: result in words
[2] = on a molar basis
blood platelets = details: result in words

## copper complex of the tripeptide glycyl-L-histidyl-L-lysine [GHK-Cu^2+]
fibroblasts; at 10^-9M, result in words
  fibroblasts synthesis of collagen: almost doubles
fibroblasts; cultures of fibroblasts, at 10^-9M
  increase in collagen synthesis: about 80%
fibroblasts; cultures of fibroblasts, lowest concentration with stimulation
  peptide concentration at which stimulation of collagen synthesis is observed (as low as): 10^-12 M
fibroblasts; cultures of fibroblasts, maximal activity
  peptide concentration of maximum stimulation of collagen synthesis: 10^-9 M
thromboxane
  effect on the hormone thromboxane: inhibits
[1]
  chemoattractive effect on cells necessary for wound-healing: chemoattractive effect
[2]
  superoxide dismutase-like activity, rate constant relative to enzymatic Cu,Zn-superoxide dismutase: about 25%
Blood platelets
  aggregation of blood platelets: inhibits
